From ChEMBL document CHEMBL4406914, “Impact of Minor Structural Modifications on Properties of a Series of mTOR Inhibitors” (ACS Med Chem Lett, 2019)
≈ marks a conversion by molar mass, not a printed value. Calls of active or inactive are those of the source. The calls are words filed in the database; no cut-off is given here.

Columns and labels:
[1] = Metabolic stability in human liver microsomes assessed as parent compound remaining at 1 uM measured at 15 mins in presence of phase 1 metabolism cofactors by LC-MS/MS analysis; type: ADME, Microsome; settings: read-out: Stability
[2] = Hepatic intrinsic clearance in human Hepatocytes assessed per at 1 uM measured upto 90 mins by LC-MS/MS analysis; type: ADME, cell-based, Hepatocyte; settings: 1.5 h
[3] = target: Serine/threonine-protein kinase mTOR (Homo sapiens, UniProt P42345); assay: Inhibition of human recombinant GST-tagged mTOR catalytic domain (1360 to 2549 residues) expressed in baculovirus expression system using GFP-4E-BP1 peptide as substrate incubated for 1 hr by LanthaScreen assay
mTORC1 = mTORC1 (Homo sapiens, UniProt P42345); assay: Inhibition of mTORC1 in human A431 cells assessed as S6RP phosphorylation incubated for 3 hrs by HTRF assay; type: cell-based
mTORC2 = mTORC2 (Homo sapiens, UniProt P42345); assay: Inhibition of mTORC2 in human A431 cells assessed as AKT phosphorylation at S473 residue incubated for 3 hrs by HTRF assay; type: cell-based
[4] = Kinetic aqueous solubility of compound in phosphate buffer at pH 7.4 at 100 uM at 20 degree C shaken for 24 hrs by HPLC analysis; type: physicochemical; settings: read-out: Kinetic_solubility
[5] = target: Phosphatidylinositol 4-phosphate 3-kinase C2 domain-containing subunit beta (Homo sapiens) (UniProt O00750); assay: Inhibition of wild-type human partial length PIK3C2B (M1 to L1634 residues) expressed in mammalian expression system at 10 uM by Kinomescan method
[6] = target: T1, Phosphatidylinositol 3-kinase C2 domain-containing subunit gamma (Homo sapiens) (UniProt O75747); assay: Inhibition of wild-type human partial length PIK3C2G (M1 to I1446 residues) expressed in mammalian expression system at 10 uM by Kinomescan method
T1 sequence (whole entry): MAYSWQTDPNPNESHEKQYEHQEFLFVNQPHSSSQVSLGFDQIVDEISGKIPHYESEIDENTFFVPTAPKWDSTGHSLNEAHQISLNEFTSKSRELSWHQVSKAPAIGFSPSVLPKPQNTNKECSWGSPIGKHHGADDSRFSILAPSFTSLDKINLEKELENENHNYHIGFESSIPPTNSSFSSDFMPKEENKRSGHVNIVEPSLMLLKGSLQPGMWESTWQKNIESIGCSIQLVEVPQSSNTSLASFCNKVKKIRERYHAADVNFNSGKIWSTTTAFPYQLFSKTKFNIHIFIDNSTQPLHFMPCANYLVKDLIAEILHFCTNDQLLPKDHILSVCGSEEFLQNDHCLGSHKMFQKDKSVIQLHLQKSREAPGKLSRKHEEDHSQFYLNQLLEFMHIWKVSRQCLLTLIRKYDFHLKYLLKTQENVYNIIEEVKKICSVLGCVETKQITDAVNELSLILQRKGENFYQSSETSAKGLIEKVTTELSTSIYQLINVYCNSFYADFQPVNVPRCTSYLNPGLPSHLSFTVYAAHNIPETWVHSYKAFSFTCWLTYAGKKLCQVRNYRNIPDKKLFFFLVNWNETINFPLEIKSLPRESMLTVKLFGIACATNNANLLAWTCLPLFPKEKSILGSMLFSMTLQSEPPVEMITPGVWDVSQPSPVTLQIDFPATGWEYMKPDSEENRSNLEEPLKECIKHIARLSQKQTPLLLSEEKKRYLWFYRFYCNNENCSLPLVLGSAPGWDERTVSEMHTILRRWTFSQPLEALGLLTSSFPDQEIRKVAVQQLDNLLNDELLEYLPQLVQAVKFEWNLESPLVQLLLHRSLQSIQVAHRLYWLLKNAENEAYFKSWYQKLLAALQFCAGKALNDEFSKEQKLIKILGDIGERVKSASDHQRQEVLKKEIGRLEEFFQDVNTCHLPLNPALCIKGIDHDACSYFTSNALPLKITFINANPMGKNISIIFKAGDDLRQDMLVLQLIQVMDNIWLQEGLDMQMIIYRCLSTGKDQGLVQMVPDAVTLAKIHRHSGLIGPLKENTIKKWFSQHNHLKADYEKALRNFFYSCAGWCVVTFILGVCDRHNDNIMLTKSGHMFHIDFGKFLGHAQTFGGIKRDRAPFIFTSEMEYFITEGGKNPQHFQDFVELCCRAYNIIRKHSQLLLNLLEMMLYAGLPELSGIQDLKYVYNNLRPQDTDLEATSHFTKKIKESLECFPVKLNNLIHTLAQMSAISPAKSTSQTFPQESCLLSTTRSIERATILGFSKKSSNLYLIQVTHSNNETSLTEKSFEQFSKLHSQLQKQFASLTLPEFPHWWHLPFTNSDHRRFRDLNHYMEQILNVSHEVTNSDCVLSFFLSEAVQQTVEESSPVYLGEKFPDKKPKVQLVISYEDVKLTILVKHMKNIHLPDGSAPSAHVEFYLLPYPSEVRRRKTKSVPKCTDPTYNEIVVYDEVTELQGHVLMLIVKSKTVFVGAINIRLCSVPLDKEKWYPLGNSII

[7] = target: Phosphatidylinositol 4,5-bisphosphate 3-kinase catalytic subunit beta isoform (Homo sapiens) (UniProt P42338); assay: Inhibition of wild-type human partial length PIK3CB (P118 to S1070 residues) expressed in mammalian expression system at 10 uM by Kinomescan method
[8] = target: T2, Phosphatidylinositol 4,5-bisphosphate 3-kinase catalytic subunit delta isoform (Homo sapiens) (UniProt O00329); assay: Inhibition of wild-type human partial length PIK3CD (R108 to Q1044 residues) expressed in mammalian expression system at 10 uM by Kinomescan method
T2 sequence (whole entry): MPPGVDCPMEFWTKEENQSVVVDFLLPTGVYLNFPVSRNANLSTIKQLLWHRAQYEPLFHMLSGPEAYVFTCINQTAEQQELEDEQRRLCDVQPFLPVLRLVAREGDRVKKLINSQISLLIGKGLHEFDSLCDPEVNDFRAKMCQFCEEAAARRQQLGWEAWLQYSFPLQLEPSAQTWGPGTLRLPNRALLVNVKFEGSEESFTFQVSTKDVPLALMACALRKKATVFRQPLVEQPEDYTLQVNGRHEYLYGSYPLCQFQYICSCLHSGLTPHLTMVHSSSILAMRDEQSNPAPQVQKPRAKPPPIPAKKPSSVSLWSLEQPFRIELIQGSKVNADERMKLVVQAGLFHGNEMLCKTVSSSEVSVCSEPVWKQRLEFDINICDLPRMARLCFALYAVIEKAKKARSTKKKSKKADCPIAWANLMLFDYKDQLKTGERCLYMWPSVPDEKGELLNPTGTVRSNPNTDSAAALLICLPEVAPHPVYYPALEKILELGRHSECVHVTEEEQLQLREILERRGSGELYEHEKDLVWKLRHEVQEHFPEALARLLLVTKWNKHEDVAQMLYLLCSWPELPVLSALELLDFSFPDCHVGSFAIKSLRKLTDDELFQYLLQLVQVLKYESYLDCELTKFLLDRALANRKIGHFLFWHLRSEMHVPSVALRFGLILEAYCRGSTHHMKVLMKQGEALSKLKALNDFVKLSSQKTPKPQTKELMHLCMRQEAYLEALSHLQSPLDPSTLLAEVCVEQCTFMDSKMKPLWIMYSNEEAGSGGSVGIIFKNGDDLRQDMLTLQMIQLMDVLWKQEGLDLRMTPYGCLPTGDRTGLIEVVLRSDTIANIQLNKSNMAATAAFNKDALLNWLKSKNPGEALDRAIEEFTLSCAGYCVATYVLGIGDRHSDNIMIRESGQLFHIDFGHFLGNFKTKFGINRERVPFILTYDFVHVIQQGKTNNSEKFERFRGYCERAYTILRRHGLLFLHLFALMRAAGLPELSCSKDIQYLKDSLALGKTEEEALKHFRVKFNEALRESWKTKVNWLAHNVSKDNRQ

[9] = target: Phosphatidylinositol 4,5-bisphosphate 3-kinase catalytic subunit gamma isoform (Homo sapiens) (UniProt P48736); assay: Inhibition of wild-type human partial length PIK3CG (S144 to A1102 residues) expressed in mammalian expression system at 10 uM by Kinomescan method
[10] = target: Phosphatidylinositol 4,5-bisphosphate 3-kinase catalytic subunit alpha isoform (Homo sapiens, UniProt P42336)
Description: Inhibition of PI3Kalpha (unknown origin) using PIP2 as substrate measured after 30 mins by TR-FRET assay

[11] = Lipophilicity, ChromlogD of compound at 0.5 mM at pH 6.5 by UPLC-UV analysis; settings: buffer, pH 6.5, 500 µM

Phosphatidylinositol 4,5-bisphosphate 3-kinase catalytic subunit gamma isoform (Homo sapiens), sequence (P48736 whole entry, looked up, the tested form may be a part, canonical isoform): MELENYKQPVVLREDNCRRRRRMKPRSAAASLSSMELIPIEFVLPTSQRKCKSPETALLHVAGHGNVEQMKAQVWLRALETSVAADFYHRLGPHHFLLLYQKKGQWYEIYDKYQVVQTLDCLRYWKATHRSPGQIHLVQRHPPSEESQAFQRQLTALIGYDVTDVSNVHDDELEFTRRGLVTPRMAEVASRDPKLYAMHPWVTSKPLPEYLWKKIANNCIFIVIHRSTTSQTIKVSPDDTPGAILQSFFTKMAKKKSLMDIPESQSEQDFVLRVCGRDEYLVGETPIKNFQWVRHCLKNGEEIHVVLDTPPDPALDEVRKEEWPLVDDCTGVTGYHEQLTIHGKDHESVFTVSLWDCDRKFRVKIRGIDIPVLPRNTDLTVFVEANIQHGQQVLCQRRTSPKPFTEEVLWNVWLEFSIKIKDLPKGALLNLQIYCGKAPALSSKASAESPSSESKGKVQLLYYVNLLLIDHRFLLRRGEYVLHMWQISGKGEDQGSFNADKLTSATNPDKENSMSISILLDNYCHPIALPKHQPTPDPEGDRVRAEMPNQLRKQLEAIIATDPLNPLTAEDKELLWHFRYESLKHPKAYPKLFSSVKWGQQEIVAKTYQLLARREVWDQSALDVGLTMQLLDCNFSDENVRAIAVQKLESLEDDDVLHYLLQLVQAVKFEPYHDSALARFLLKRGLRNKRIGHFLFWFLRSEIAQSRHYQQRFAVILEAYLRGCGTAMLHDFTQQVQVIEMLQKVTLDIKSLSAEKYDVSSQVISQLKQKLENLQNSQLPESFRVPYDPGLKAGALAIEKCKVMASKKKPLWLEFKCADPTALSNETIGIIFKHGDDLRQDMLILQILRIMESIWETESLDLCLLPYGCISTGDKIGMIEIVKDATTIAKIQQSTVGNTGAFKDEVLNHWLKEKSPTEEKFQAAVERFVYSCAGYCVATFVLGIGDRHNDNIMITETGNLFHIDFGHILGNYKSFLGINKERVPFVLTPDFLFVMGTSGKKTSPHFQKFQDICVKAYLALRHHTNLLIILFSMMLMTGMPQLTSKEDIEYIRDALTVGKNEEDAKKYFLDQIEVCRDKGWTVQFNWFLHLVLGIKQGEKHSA
Phosphatidylinositol 4,5-bisphosphate 3-kinase catalytic subunit beta isoform (Homo sapiens), sequence (P42338 whole entry, looked up, the tested form may be a part, canonical isoform): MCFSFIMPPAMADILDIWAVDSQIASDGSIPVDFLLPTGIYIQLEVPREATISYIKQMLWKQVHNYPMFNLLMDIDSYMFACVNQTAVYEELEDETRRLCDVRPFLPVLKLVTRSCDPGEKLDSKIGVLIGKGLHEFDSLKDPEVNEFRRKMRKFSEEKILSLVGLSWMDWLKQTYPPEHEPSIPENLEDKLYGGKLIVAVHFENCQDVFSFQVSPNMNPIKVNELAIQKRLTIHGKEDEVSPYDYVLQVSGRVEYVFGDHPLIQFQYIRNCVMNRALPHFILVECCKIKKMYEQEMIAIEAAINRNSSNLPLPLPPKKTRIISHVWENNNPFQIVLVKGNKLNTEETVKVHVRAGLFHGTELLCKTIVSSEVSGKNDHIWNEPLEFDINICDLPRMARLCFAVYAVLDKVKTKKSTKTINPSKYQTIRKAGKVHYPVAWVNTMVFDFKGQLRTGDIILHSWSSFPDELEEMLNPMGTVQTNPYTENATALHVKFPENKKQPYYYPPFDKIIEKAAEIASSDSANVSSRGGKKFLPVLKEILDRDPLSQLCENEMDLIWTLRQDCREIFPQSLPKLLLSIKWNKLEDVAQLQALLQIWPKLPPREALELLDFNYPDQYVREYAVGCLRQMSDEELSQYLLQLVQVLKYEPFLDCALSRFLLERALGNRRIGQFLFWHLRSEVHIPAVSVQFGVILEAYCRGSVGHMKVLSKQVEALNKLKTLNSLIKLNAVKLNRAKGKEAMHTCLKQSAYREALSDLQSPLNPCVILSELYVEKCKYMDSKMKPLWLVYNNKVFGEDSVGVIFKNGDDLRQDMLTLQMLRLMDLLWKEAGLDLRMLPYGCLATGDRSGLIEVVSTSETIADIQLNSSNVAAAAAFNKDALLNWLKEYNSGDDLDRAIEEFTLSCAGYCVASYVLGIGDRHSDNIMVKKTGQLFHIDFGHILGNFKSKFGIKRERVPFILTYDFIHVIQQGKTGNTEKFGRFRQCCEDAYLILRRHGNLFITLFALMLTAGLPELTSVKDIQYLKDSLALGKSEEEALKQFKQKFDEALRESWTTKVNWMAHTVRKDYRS
Phosphatidylinositol 4,5-bisphosphate 3-kinase catalytic subunit alpha isoform, sequence (P42336 whole entry, canonical isoform): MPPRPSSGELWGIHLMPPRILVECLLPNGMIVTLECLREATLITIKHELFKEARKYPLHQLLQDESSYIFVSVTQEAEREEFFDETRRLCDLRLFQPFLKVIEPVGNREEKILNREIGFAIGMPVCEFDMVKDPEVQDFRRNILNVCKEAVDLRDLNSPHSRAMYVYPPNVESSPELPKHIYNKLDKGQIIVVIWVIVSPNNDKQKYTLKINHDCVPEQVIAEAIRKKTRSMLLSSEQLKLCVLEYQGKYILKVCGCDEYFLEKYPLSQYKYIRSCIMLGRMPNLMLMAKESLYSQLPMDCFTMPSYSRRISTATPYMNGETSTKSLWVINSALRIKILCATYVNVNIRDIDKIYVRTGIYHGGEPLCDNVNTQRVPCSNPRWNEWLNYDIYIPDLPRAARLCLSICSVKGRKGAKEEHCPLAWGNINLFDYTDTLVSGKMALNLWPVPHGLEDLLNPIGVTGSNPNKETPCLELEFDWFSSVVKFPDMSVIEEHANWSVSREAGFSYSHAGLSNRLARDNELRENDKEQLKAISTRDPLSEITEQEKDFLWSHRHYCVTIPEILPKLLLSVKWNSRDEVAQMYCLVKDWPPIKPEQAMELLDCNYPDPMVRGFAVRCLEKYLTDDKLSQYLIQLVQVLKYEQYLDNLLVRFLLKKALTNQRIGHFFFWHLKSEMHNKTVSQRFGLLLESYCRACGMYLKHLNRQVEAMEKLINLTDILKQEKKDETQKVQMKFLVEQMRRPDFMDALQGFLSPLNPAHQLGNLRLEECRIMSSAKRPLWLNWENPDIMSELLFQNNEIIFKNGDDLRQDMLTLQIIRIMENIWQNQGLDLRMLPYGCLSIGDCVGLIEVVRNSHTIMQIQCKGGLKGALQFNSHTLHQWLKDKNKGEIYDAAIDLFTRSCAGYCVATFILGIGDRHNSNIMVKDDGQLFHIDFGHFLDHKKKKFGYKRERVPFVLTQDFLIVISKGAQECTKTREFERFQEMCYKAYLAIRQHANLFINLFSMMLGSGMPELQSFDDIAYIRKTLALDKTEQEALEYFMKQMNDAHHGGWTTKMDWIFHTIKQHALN
Phosphatidylinositol 4-phosphate 3-kinase C2 domain-containing subunit beta (Homo sapiens), sequence (O00750 whole entry, the tested form may be a part): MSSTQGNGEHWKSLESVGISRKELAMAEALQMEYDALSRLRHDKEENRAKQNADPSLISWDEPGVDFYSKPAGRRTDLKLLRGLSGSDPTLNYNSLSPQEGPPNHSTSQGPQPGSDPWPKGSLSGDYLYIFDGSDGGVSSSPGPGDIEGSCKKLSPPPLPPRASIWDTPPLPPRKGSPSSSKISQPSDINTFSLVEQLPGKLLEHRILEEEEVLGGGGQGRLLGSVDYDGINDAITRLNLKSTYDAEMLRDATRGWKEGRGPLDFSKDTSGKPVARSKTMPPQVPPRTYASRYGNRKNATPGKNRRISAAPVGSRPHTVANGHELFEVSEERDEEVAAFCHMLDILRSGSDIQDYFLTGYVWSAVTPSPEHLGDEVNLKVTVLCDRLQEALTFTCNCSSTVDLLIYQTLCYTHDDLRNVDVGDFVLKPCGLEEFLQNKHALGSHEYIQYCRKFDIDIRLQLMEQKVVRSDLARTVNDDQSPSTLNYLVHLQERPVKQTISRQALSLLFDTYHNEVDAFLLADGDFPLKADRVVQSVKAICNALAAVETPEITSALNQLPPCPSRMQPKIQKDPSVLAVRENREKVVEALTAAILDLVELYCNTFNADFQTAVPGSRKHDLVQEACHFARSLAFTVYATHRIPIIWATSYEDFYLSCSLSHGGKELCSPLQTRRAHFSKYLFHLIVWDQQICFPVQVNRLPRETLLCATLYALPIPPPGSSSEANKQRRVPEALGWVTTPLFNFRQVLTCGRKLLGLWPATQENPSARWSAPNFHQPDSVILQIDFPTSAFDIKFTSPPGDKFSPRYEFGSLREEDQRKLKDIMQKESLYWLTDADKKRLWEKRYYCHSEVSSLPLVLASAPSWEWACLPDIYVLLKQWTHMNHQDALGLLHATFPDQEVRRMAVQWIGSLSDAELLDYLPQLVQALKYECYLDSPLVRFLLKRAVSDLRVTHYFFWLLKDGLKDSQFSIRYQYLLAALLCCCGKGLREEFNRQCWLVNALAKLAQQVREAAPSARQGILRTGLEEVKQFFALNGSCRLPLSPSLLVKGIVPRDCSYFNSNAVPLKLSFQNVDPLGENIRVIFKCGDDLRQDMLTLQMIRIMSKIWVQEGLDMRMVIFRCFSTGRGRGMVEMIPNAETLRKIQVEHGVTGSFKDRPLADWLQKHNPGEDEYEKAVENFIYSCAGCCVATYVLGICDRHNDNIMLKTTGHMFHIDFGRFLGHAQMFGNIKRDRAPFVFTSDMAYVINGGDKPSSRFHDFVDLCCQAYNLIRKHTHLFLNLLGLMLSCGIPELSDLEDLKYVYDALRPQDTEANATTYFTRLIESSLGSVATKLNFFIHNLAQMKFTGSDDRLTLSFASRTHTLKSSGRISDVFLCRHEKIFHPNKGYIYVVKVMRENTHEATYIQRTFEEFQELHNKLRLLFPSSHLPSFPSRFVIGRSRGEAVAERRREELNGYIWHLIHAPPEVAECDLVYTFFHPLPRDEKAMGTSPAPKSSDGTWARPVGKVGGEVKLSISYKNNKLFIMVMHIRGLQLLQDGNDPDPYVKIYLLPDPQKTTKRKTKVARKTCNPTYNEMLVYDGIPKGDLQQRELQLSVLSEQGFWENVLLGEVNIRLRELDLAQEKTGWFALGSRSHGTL

With `CC(C)n1nc(-c2ccc3oc(N)nc3c2)c2c(=O)[nH]cnc21` the remaining at 0.25 h, 1 µM [1] was > 95%, the CLH [2] was < 5 µL/min and the Ki [3] was 28 nM. The IC50 (mTORC1) was 30 nM, the IC50 (mTORC2) was 130 nM and the solubility kinetic at 24 h, 100 µM [4] was 3 µM (≈ 0.931 µg/mL). For the same molecule, the inhibition [5] was “inactive”, the inhibition [6] was “inactive” and the inhibition [7] was “inactive”. For the same molecule, the inhibition [8] was “inactive”, the inhibition [9] was “inactive” and the Ki [10] was > 10000 nM. The ChromlogD6.5 [11] was 0.9.
